Assay results as given in PMC3983056 (PLoS Pathogens, 2014).
Several values for one entry are separate records, joined by “and”; a condition that tells them apart may be missing. Equal values may be shown once. Read-outs that look alike come from different tables or passages of the source.

How the values were obtained:
[1] = Clinical systemic exposure; format: in vivo, human
[2] = system: PBMC cultures from HIV-infected patients; test: Cytokine induction in PBMC cultures; format: cell-based, human; details: RMD treatment, data not shown
From the text: HIV latency reversing agents that would be suitable for the therapeutic use in vivo should not induce non-specific immune activation.

[3] = system: latent HIV in resting CD4 T cells from HIV-infected patients on suppressive cART; format: cell-based; details: for HIV RNA avg: 40 nM RMD, one value per donor; for HIV RNA [copies/mil cells] avg: Figure 5
Experimental: To examine the kinetics of HIV induction, we analyzed cell-associated viral RNA levels at 6, 12, 24, and 48 hours after treatment initiation.
Lysates were filtered through a Qiashredder (Qiagen).

[4] = system: latent HIV in memory CD4 T cells from HIV-infected patients on suppressive cART; details: for HIV RNA avg: 6 days, one value per donor; for extracellular HIV RNA in culture supernatants: memory CD4 T cells
From the text: We used HIV RNA in cell culture supernatants as a surrogate marker for virion release from treated cells. We assumed that extracellular virions would accumulate over the course of several days; therefore, the duration of culture was extended to 6 days to maximize assay sensitivity.
(§2) HIV-infected patients participating in the study were selected based on sustained plasma viral load suppression (<50 copies/ml for >12 months), CD4 counts (>350 cells/µL), and absence of co-infection with hepatitis B or C virus (Supplementary Table S1). Clinical laboratory results were reconfirmed 2 weeks before leukapheresis or blood draw. Leukapheresis was conducted for 3–4 hours, and samples were processed within 2 hours after collection. The leukapheresis product was diluted 1∶1 with PBS and layered over Ficoll for isolation of PBMCs. […] Resting CD4 T cells were isolated by first enriching total CD4 T cells (StemCell Technologies) and subsequently depleting HLA-DR-, CD25-, and CD69-positive cells via negative selection (Miltenyi Biotec, Auburn, CA).
(§3) To assess HIV activation by HDACi, up to 5 million CD4 T cells were plated in 24-well plates in 2.5 ml of media, supplemented with antiretrovirals (ARVs) (100 nM elvitegravir and 100–300 nM efavirenz) for the entire duration of culture incubation. HDACi were added at specified concentrations on day 0 and cells or culture supernatants were harvested for the analysis of HIV RNA at the indicated time points (6–48 hours or 6–7 days, respectively). For HDACi pulse treatment, cultures were washed twice using ARV-containing media at 4 or 24 hours after addition of HDACi and incubated with ARVs until harvest. To measure HIV RNA levels, 1 ml of culture supernatant was analyzed by a robotic COBAS AmpliPrep/TaqMan system (Roche Diagnostics, Indianapolis, IN), which extracts total nucleic acid and quantifies HIV RNA in copies per milliliter using the HIV-1 Test, v2.0 kit (Roche Diagnostics). For the measurement of cell-associated HIV RNA levels, cells were washed with PBS, counted, and lysed (Qiagen RLT buffer, 400 µl for every 2 million cells; Qiagen, Venlo, Netherlands). Lysates were filtered through a Qiashredder (Qiagen). Total RNA was prepared from the lysates (400 µl) using a robotic system (QIAsymphony, Qiagen) that incorporates a DNase I digestion step to eliminate cellular DNA. The resulting total RNA was eluted with 200 µl of buffer, diluted to 1 ml with nuclease-free water, and analyzed by COBAS using the HIV-1 Test v2.0 kit. Preparations of both cell-associated RNA and supernatant total nucleic acids were tested for potential contamination with HIV DNA and/or host DNA by performing the PCR amplification in the presence and absence of reverse transcriptase and by a detection of GAPDH-encoding host DNA sequence.
(§4) HIV RNA-induction experiments were conducted using 5 to 6 replicates for every experimental condition, including vehicle-treated controls. Fold induction in HIV RNA levels was calculated as a ratio of mean signals from compound-treated and vehicle (DMSO)-treated control samples from the same donor under identical conditions. […] For experiments using blood-derived resting CD4 T cells, culture supernatants from 3 replicate wells were combined and analyzed using the COBAS system.

[5] = system: resting CD4 T cells from cART-suppressed HIV-infected patients; test: Cell activation analysis by flow cytometry, isolated resting CD4 T cells; format: cell-based, human; details: 4-hour pulse RMD
Experimental: For cell activation analysis, either complete PBMC cultures or resting CD4+ T cells isolated from HIV-infected cART-suppressed patients were incubated with the tested agents under specified conditions and were stained with relevant antibodies. All antibodies were purchased from BD Biosciences and included Alexa Fluor 700-labeled antibody to CD4, APC-H7-labeled antibody to CD8, PE-Cy7 -labeled antibody to CD19, PE-labeled antibody to CD69, APC-labeled antibody to CD25, and V450-labeled antibody to HLA-DR. Live cells were gated by forward and side scatter and exclusion of the dead cells by Live/Dead Fixable Aqua Stain (Invitrogen). Marker staining was assessed by flow cytometry analysis on a LSR Fortessa with data processing using FlowJo software.
The surface expression of CD25 and CD69 in viable CD4 cells was analyzed by flow cytometry. Data are mean ± SD of two independent experiments performed with cells isolated from two HIV-infected patients on suppressive cART.

human HDAC-5 = biological target: T1, human HDAC-5 (Homo sapiens, UniProt Q9UQL6); test: HDAC inhibition assay; format: biochemical
T1 construct: purchased Reaction Biology Corporation (Malvern, PA)
T1 sequence (Q9UQL6 whole entry): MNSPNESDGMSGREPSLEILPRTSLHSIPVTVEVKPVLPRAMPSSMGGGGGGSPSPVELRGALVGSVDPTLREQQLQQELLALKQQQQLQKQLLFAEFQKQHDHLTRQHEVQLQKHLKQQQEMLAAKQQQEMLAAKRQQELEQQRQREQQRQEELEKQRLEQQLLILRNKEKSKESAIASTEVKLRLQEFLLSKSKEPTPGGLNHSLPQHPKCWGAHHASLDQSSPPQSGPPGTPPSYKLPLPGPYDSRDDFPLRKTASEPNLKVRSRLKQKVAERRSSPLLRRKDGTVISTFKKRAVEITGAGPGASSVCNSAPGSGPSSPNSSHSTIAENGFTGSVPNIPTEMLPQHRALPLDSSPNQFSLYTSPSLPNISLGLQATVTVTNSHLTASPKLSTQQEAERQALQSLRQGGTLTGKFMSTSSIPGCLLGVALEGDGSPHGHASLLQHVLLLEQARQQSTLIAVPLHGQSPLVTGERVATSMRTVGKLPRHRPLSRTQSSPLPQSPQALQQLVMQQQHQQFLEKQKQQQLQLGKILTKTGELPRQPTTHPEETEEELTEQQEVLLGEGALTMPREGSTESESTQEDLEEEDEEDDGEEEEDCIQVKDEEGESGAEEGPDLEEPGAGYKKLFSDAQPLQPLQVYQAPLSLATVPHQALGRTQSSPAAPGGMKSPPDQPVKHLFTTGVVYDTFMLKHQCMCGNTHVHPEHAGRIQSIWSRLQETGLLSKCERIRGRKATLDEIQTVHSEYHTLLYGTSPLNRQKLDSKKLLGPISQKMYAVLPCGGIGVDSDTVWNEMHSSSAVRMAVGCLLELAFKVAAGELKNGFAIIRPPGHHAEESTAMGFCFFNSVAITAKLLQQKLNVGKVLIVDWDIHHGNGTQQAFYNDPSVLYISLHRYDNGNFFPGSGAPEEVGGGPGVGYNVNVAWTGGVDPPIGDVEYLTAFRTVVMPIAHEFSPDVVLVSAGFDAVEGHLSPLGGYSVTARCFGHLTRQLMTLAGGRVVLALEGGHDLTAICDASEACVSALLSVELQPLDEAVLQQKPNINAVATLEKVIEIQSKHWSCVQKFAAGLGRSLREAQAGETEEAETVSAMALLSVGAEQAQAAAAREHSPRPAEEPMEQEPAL
Experimental: (§5) Determination of HDACi potency against individual HDAC enzymes was performed at Reaction Biology Corporation (Malvern, PA). In brief, human HDAC-1 to -11 enzymes were incubated with serial dilutions of HDACi and fluorogenic peptide substrates (50 µM) in a 96-well format assay. […] Fluorogenic peptide Boc-Lys(trifluoroacetyl)-AMC was used as a substrate for HDAC enzymes 4, 5, 7, and 9.

[6] = Human serum binding by equilibrium dialysis, HPLC/mass spectrometry; format: in vitro ADME; details: read-out: Human serum binding (free fraction)
From the text: (DOCX) Click here for additional data file.

[7] = system: memory CD4 cells from HIV-infected patients; test: Viability of primary memory CD4 cells (Cell TiterGlo, 6 days); format: cell-based, human; details: memory CD4 cells, tested RMD concentrations (5 and 20 nM, 4 hours), day 6
Experimental: Cell viability was determined using a Cell TiterGlo reagent 6 days after the initiation of treatment and is expressed as a percentage of cell viability relative to control vehicle-treated memory CD4 cells from the same donors. The data represent mean +/− S.D. from three independent donors. (TIF) Click here for additional data file.

[8] = system: latent HIV in resting CD4 T cells from HIV-infected patients on suppressive cART; test: Ex vivo release of extracellular HIV RNA into culture supernatants, resting CD4 T cells; format: cell-based
Experimental: as §2, §3, §4

[9] = Compound-associated cytotoxicity in latently infected cells (Cell Titer Glo); format: cell-based, human; details: human, latently infected (NL4.3-Luc) primary CD4+ T cells, continuous 48 hours, 50% cell viability reduction, three donors, mean ± SD
Experimental: (§1) Total peripheral blood mononuclear cells (PBMCs) were obtained from healthy HIV-negative donors by leukapheresis (AllCells, Inc, Emeryville, CA). Naive CD4+ T cells were purified by negative selection using EasySep magnetic beads (StemCells, Inc, Vancouver, Canada) and cultured in RPMI with 10% fetal bovine serum (FBS), penicillin/streptomycin, 1% nonessential amino acids (Life Technologies, Carlsbad, CA), 1% sodium pyruvate (Life Technologies) and 495 nM beta-mercaptoethanol (Sigma Aldrich, St. Louis, MO) in a 37°C, 5% CO2 incubator. Purified naive CD4+ T cells were activated by incubation with anti-CD3/CD28 magnetic Dynabeads (1 bead: 2 cells ratio, Life Technologies), 1 µg/ml anti-IL-4 (R&D Systems, Minneapolis, MN), 2 µg/ml anti-IL-12p70 antibodies (R&D Systems), and 10 ng/ml TGF-β (R&D Systems) for 3 days, [59]. Following the removal of anti-CD3/CD28 beads and antibodies, cells were maintained in 30 U/ml IL-2 (Life Technologies) for 2 days. Cells were then infected with NL4.3-Luc in the presence of 50 µg/ml DEAE for 3 hours. Cells were maintained in the continued presence of 30 U/ml IL-2 throughout the infection and subsequent rest period with culture medium with fresh IL-2 replaced every 2–3 days. Seven days post-infection, 20 µl of latently infected cells were dispensed into 384 well plates using a MicroFlo dispenser (Biotek Insturments, VT) at 10,000 cells/well containing 100 nl of compound solutions delivered by the Echo acoustic-based liquid dispenser (Labcyte, Sunnyvale, CA). After a 48-hour incubation, 16 µl/well BriteGlo (Promega, Madison, WI) was added and luminescence measured using the Envision plate reader (Perkin Elmer, Waltham, MA). Compound-associated cytotoxicity was determined in latently infected cells in parallel with the virus activation assay. Cells were incubated with compounds for 48 hours at 37°C, and cell viability was determined using Cell Titer Glo reagent (Promega).

[10] = system: latently infected primary CD4 T cells; test: as above; format: cell-based, human; details: continuous 48 hours, 50% cell viability reduction, three donors, mean ± SD
Experimental: as §1

human HDAC-9 = biological target: T2, human HDAC-9 (Homo sapiens, UniProt Q9UKV0); test: HDAC inhibition assay; format: biochemical
T2 construct: purchased Reaction Biology Corporation (Malvern, PA)
T2 sequence (Q9UKV0 whole entry): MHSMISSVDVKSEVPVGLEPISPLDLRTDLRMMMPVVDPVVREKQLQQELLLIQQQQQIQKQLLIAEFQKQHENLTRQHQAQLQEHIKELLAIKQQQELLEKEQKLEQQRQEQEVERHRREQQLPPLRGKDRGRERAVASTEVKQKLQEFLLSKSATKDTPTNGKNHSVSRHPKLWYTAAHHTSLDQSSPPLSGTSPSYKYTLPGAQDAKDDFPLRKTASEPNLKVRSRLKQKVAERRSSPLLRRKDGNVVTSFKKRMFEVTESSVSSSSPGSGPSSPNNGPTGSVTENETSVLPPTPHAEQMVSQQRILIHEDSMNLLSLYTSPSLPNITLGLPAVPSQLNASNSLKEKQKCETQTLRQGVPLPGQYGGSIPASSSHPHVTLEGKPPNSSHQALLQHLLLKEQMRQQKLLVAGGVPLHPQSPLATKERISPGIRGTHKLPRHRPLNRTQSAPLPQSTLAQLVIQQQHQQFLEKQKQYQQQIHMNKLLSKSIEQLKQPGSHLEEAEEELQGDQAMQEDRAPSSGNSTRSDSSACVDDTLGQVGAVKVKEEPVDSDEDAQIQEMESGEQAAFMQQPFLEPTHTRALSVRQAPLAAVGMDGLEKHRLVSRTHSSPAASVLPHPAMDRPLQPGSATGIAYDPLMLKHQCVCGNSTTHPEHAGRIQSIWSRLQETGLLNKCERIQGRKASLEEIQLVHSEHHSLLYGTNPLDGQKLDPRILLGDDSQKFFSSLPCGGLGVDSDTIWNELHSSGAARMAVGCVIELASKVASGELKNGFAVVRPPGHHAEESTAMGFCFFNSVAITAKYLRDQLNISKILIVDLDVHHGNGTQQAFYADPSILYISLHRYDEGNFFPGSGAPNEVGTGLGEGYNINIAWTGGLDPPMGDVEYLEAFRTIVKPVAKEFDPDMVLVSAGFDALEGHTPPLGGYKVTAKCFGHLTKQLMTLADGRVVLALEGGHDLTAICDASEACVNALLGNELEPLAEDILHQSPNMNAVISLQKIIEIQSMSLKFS
Experimental: as §5

human HDAC-11 = biological target: T3, human HDAC-11 (Homo sapiens, UniProt Q96DB2); test: HDAC inhibition assay; format: biochemical
T3 construct: purchased Reaction Biology Corporation (Malvern, PA)
T3 sequence (Q96DB2 whole entry): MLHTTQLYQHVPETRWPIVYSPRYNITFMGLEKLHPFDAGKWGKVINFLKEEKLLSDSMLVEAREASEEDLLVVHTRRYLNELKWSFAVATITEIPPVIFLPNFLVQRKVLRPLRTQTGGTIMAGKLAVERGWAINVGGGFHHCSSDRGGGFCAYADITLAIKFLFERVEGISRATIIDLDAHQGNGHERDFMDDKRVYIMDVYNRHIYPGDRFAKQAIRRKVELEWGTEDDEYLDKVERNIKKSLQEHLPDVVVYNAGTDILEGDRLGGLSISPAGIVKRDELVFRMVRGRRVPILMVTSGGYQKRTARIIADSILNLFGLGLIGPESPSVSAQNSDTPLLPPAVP
Experimental: as §5

Compound: C/C=C1\NC(=O)[C@H]2CSSCC/C=C/[C@H](CC(=O)N[C@H](C(C)C)C(=O)N2)OC(=O)[C@H](C(C)C)NC1=O [RMD, romidepsin]
- Free drug concentration, clinical systemic exposure ([1]; at Cmax, RMD 14 mg/m^2 i.v., VOR 400 mg p.o.): 56 nM
- Fraction of clinical exposure ([1]; ratio of free drug concentration in cell culture media (RMD 40 nM, VOR 1,000 nM) and in serum of clinically treated patients): 39%
- induction of IFN-α, IFN-γ, TNF-α, TGF-β, IL-2, IL-7 or other cytokines [2]: no significant induction
- HIV RNA avg ([3]; Figure 2B, 6hr): 9642 copies/mil cells and 324 copies/mil cells and 14747 copies/mil cells and 6687 copies/mil cells and 2352 copies/mil cells
- HIV RNA avg ([3]; Figure 2B, 12hr): 6663 copies/mil cells and 352 copies/mil cells and 13013 copies/mil cells and 9057 copies/mil cells and 2763 copies/mil cells
- HIV RNA avg ([3]; Figure 2B, 24hr): 8902 copies/mil cells and 542 copies/mil cells and 17191 copies/mil cells and 14960 copies/mil cells and 4744 copies/mil cells
- HIV RNA avg ([3]; Figure 2B, 48hr): 3882 copies/mil cells and 831 copies/mil cells and 21497 copies/mil cells and 14409 copies/mil cells and 7107 copies/mil cells
- HIV RNA avg ([3]; Figure 4, 6 hours): 6481 copies/mil cells and 2385 copies/mil cells
- HIV RNA avg ([3]; Figure 4, 24 hours): 15888 copies/mil cells and 7188 copies/mil cells
- HIV RNA avg ([3]; Figure 4, 48 hours): 8834 copies/mil cells and 9481 copies/mil cells
- HIV RNA [copies/mil cells] avg ([3]; 3.5 nM RMD, 6 hours, donor 6): 4270 copies/mil cells
- HIV RNA [copies/mil cells] avg ([3]; 3.5 nM RMD, 6 hours, donor 7): 3321 copies/mil cells
- HIV RNA [copies/mil cells] avg ([3]; 3.5 nM RMD, 6 hours, donor 8): 816 copies/mil cells
- HIV RNA [copies/mil cells] avg ([3]; 3.5 nM RMD, 12 hours, donor 6): 3943 copies/mil cells
- HIV RNA [copies/mil cells] avg ([3]; 3.5 nM RMD, 12 hours, donor 7): 2314 copies/mil cells
- HIV RNA [copies/mil cells] avg ([3]; 3.5 nM RMD, 12 hours, donor 8): 526 copies/mil cells
- HIV RNA [copies/mil cells] avg ([3]; 3.5 nM RMD, 24 hours, donor 6): 4673 copies/mil cells
- HIV RNA [copies/mil cells] avg ([3]; 3.5 nM RMD, 24 hours, donor 7): 2633 copies/mil cells
- HIV RNA [copies/mil cells] avg ([3]; 3.5 nM RMD, 24 hours, donor 8): 586 copies/mil cells
- HIV RNA [copies/mil cells] avg ([3]; 3.5 nM RMD, 48 hours, donor 6): 3640 copies/mil cells
- HIV RNA [copies/mil cells] avg ([3]; 3.5 nM RMD, 48 hours, donor 7): 4009 copies/mil cells
- HIV RNA [copies/mil cells] avg ([3]; 3.5 nM RMD, 48 hours, donor 8): 769 copies/mil cells
- HIV RNA [copies/mil cells] avg ([3]; 15 nM RMD, 6 hours, donor 6): 9276 copies/mil cells
- HIV RNA [copies/mil cells] avg ([3]; 15 nM RMD, 6 hours, donor 7): 5400 copies/mil cells
- HIV RNA [copies/mil cells] avg ([3]; 15 nM RMD, 6 hours, donor 8): 2254 copies/mil cells
- HIV RNA [copies/mil cells] avg ([3]; 15 nM RMD, 12 hours, donor 6): 15172 copies/mil cells
- HIV RNA [copies/mil cells] avg ([3]; 15 nM RMD, 12 hours, donor 7): 4260 copies/mil cells
- HIV RNA [copies/mil cells] avg ([3]; 15 nM RMD, 12 hours, donor 8): 1826 copies/mil cells
- HIV RNA [copies/mil cells] avg ([3]; 15 nM RMD, 24 hours, donor 6): 24438 copies/mil cells
- HIV RNA [copies/mil cells] avg ([3]; 15 nM RMD, 24 hours, donor 7): 9787 copies/mil cells
- HIV RNA [copies/mil cells] avg ([3]; 15 nM RMD, 24 hours, donor 8): 4270 copies/mil cells
- HIV RNA [copies/mil cells] avg ([3]; 15 nM RMD, 48 hours, donor 6): 19207 copies/mil cells
- HIV RNA [copies/mil cells] avg ([3]; 15 nM RMD, 48 hours, donor 7): 13754 copies/mil cells
- HIV RNA [copies/mil cells] avg ([3]; 15 nM RMD, 48 hours, donor 8): 3470 copies/mil cells
- HIV RNA [copies/mil cells] avg ([3]; 45 nM RMD, 6 hours, donor 6): 14747 copies/mil cells
- HIV RNA [copies/mil cells] avg ([3]; 45 nM RMD, 6 hours, donor 7): 6687 copies/mil cells
- HIV RNA [copies/mil cells] avg ([3]; 45 nM RMD, 6 hours, donor 8): 2352 copies/mil cells
- HIV RNA [copies/mil cells] avg ([3]; 45 nM RMD, 12 hours, donor 6): 13013 copies/mil cells
- HIV RNA [copies/mil cells] avg ([3]; 45 nM RMD, 12 hours, donor 7): 9057 copies/mil cells
- HIV RNA [copies/mil cells] avg ([3]; 45 nM RMD, 12 hours, donor 8): 2763 copies/mil cells
- HIV RNA [copies/mil cells] avg ([3]; 45 nM RMD, 24 hours, donor 6): 17191 copies/mil cells
- HIV RNA [copies/mil cells] avg ([3]; 45 nM RMD, 24 hours, donor 7): 14960 copies/mil cells
- HIV RNA [copies/mil cells] avg ([3]; 45 nM RMD, 24 hours, donor 8): 4744 copies/mil cells
- HIV RNA [copies/mil cells] avg ([3]; 45 nM RMD, 48 hours, donor 6): 21497 copies/mil cells
- HIV RNA [copies/mil cells] avg ([3]; 45 nM RMD, 48 hours, donor 7): 14409 copies/mil cells
- HIV RNA [copies/mil cells] avg ([3]; 45 nM RMD, 48 hours, donor 8): 7107 copies/mil cells
- induction of HIV transcription ([3]; resting CD4 T cells, 3.5 nM RMD for 4 hours): minimal induction
- increase in intracellular HIV RNA levels versus vehicle ([3]; resting CD4 T cells, 40 nM RMD for 4 hours, peak between 24 and 48 hours): 6 fold
- persistence of intracellular HIV RNA induction ([3]; resting CD4 T cells, pulse RMD 4 hours, VOR 24 hours, PNB 24 hours, 6 to 48 hours): persisted throughout the 48-hour incubation period
- HIV RNA avg ([4]; Figure 3A, 5 nM RMD): 1476 copies/mil cells and 10908 copies/mil cells and 138 copies/mil cells and 222 copies/mil cells and 322 copies/mil cells and 41.9 copies/mil cells and 73 copies/mil cells and 313.5 copies/mil cells
- HIV RNA avg ([4]; Figure 3A, 20 nM RMD): 68 copies/mil cells and 712 copies/mil cells and 1346 copies/mil cells and 3086 copies/mil cells and 1361 copies/mil cells and 157 copies/mil cells and 732 copies/mil cells and 4776 copies/mil cells
- HIV RNA avg ([4]; Figure 3B, 5 nM RMD): 1032 copies/mil cells and 1674 copies/mil cells and 1740 copies/mil cells and 1435 copies/mil cells and 1299 copies/mil cells and 1832 copies/mil cells and 6659 copies/mil cells and 1420 copies/mil cells and 8934 copies/mil cells and 205 copies/mil cells and 148 copies/mil cells and 1219 copies/mil cells
- High-responding patient; HIV RNA [copies/mL] ([4]; Figure 7, 0.093nM RMD, donor 29, experiments 1-3): 34 copies/mL and 36 copies/mL and 64 copies/mL
- Low-responding patient; HIV RNA [copies/mL] ([4]; Figure 7, 0.093nM RMD, donor 33, experiments 1-3): 20 copies/mL and 28 copies/mL
- extracellular HIV RNA in culture supernatants ([4]; 5 nM RMD continuous 6 days): detection of extracellular HIV RNA in memory CD4 T-cell cultures from the majority of tested donors
- extracellular HIV RNA in culture supernatants ([4]; 5 and 20 nM RMD for 4 hours, day 6): increased extracellular HIV RNA
- fraction of CD69-positive cells [5]: minimal increases
- IC50 (human HDAC-5): 1160 nM
- fraction unbound [6]: 0.08
- cell viability [7]: did not substantially affect cell viability
- HIV RNA ([8]; Figure 3C, 2.5 nM RMD, 7 days, one value per donor): 1205 copies/mL and 20 copies/mL and 2949 copies/mL and 560 copies/mL and 341 copies/mL and 86 copies/mL and 137 copies/mL
- donors with induced HIV RNA release ([8]; resting CD4 T cells, 2.5 nM RMD continuous 6 days): 6 of 8
- HIV RNA in culture supernatants, longitudinal samples ([8]; resting CD4 T cells, 7 days continuous RMD, high-responding patient, three longitudinal samples): robust and reproducible dose-dependent HIV RNA increase
- longitudinal samples with concentration-dependent effect on viral expression ([8]; resting CD4 T cells, 7 days continuous RMD, low-responding patient): 2 of 3
- CC50 at 48 h [9]: 100 nM
- CC50 [10]: 107 ± 126 nM
- IC50 (human HDAC-9): 8910 nM
- IC50 (human HDAC-11): 0.407 nM
